{
  "source": "ChEMBL document CHEMBL3044857",
  "about": "“Benzimidazole: a medicinally important heterocyclic moiety” (Med Chem Res, 2012)",
  "key": {"[1]": {"test_system": "Candida", "test": "Antimicrobial activity against Candida", "format": "functional"}, "[2]": {"test_system": "Respiratory syncytial virus", "test": "Ratio of ribavirin EC50 to compound EC50 for Respiratory syncytial virus infected cell system assessed as inhibition of viral replication", "format": "functional"}, "[3]": {"test_system": "Respiratory syncytial virus", "test": "Antiviral activity against Respiratory syncytial virus infected cell system assessed as inhibition of viral replication", "format": "functional, organism-based", "conditions": "human respiratory syncytial virus"}, "[4]": {"test_system": "Aorta", "test": "Vasorelaxant activity in Rattus norvegicus (rat) aortic rings", "format": "functional, tissue-based"}, "[5]": {"test_system": "Aorta", "test": "Vasorelaxant activity in endothelium-denuded Rattus norvegicus (rat) aortic rings", "format": "functional, tissue-based"}, "[6]": {"test_system": "PC-3", "test": "Cytotoxicity against Homo sapiens (human) PC3 cells by Alamar blue assay", "format": "functional, cell-based"}, "[7]": {"test_system": "HT-29", "test": "Cytotoxicity against Homo sapiens (human) HT-29 cells by Alamar blue assay", "format": "functional, cell-based"}, "[8]": {"test_system": "HL-60", "test": "Cytotoxicity against Homo sapiens (human) HL60 cells by Alamar blue assay", "format": "functional, cell-based"}, "[9]": {"test_system": "MCF7", "test": "Cytotoxicity against Homo sapiens (human) MCF7 cells by Alamar blue assay", "format": "functional, cell-based"}, "[10]": {"test_system": "Trichomonas vaginalis", "test": "Antimicrobial activity against Trichomonas vaginalis", "format": "functional, organism-based"}, "[11]": {"test_system": "Giardia intestinalis", "test": "Antimicrobial activity against Giardia intestinalis", "format": "functional, organism-based", "conditions": "Giardia duodenalis"}, "[12]": {"biological_target": "T1, Progesterone receptor (Homo sapiens, UniProt P06401)", "T1 sequence (P06401 whole entry)": "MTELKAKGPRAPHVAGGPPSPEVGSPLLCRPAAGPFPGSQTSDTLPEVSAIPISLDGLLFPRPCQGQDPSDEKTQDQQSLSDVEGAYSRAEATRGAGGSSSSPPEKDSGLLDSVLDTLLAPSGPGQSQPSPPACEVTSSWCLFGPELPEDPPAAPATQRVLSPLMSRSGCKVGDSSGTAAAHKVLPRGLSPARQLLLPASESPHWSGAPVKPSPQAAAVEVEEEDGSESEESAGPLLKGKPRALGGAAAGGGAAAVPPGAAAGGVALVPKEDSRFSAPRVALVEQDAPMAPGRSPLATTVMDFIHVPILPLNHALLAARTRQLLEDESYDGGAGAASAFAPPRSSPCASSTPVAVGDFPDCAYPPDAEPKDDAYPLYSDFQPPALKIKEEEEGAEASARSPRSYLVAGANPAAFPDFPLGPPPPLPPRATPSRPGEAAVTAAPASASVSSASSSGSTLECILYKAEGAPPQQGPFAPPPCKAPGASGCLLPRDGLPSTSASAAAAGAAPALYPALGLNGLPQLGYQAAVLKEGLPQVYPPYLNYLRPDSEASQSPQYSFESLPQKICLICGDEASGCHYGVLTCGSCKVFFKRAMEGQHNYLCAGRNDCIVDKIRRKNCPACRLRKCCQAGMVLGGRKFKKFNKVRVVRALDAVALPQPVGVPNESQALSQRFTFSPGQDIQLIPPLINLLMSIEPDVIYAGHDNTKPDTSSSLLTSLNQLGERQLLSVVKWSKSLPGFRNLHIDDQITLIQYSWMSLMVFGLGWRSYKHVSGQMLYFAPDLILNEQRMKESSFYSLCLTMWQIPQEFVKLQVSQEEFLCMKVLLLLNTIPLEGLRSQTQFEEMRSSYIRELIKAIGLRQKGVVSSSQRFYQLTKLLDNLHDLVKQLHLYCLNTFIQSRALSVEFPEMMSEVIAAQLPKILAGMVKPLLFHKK", "test": "Binding affinity to Homo sapiens (human) progesterone receptor"}, "[13]": {"test": "Inhibition of GABA-A receptor benzodiazepine site (unknown origin)", "parameters": "species or system Homo sapiens"}, "[14]": {"test_system": "Plasmodium falciparum", "test": "Antimicrobial activity against Plasmodium falciparum", "format": "functional, organism-based"}, "[15]": {"biological_target": "Casein kinase 2 (Rattus norvegicus, UniProt P19139)", "sequence (P67874 whole entry)": "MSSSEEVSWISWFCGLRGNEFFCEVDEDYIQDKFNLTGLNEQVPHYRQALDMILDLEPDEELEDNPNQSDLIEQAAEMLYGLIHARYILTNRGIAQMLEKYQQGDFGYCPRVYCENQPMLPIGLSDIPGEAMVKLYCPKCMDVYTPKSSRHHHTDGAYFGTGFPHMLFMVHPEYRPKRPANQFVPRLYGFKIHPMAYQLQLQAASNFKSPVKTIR", "sequence (P19139 whole entry)": "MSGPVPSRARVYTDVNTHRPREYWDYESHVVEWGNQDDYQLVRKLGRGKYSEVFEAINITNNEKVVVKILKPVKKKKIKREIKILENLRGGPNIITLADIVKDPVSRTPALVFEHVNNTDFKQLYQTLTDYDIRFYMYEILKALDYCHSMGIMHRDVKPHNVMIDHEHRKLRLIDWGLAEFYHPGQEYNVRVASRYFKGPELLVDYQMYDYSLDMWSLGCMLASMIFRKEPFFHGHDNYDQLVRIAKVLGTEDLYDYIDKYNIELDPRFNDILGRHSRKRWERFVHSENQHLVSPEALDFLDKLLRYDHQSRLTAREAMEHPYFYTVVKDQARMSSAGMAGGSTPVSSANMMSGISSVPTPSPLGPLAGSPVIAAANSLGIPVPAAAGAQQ", "test": "Inhibition of Rattus norvegicus (rat) liver cytosolic CK2"}},
  "data": [
    {"smiles": "CCCCn1c(-c2ccc(F)cc2)nc2cc(C#N)ccc21", "values": [
      {"measurement": "MIC", "setting": "[1]", "result": 3130, "unit": "ng/mL"}
    ]},
    {"smiles": "Cc1ccc(O)c(Cn2c(NC3CCN(CCN)CC3)nc3c(C)cccc32)n1", "note": "[JNJ 2408068]", "values": [
      {"measurement": "Ratio EC50", "setting": "[2]", "result": 100000},
      {"measurement": "EC50", "setting": "[3]", "result": 0.16, "unit": "nM"}
    ]},
    {"smiles": "COc1ccc(-c2nc3cc([N+](=O)[O-])ccc3[nH]2)cc1", "values": [
      {"measurement": "IC50", "setting": "[4]", "result": 1410, "unit": "nM"},
      {"measurement": "IC50", "setting": "[5]", "result": 3610, "unit": "nM"}
    ]},
    {"smiles": "O=C(O)c1cccc2[nH]c(-c3cccc4oc(-c5ccccc5O)nc34)nc12", "values": [
      {"measurement": "IC50", "setting": "[6]", "result": 7000, "unit": "nM"},
      {"measurement": "IC50", "setting": "[7]", "result": 7000, "unit": "nM"},
      {"measurement": "IC50", "setting": "[8]", "result": 7000, "unit": "nM"},
      {"measurement": "IC50", "setting": "[9]", "result": 7000, "unit": "nM"}
    ]},
    {"smiles": "NC(=O)c1ncn([C@@H]2O[C@H](CO)[C@@H](O)[C@H]2O)n1", "note": "[RIBAVIRIN]", "values": [
      {"measurement": "EC50", "setting": "[3]", "result": 15000, "unit": "nM"}
    ]},
    {"smiles": "O=[N+]([O-])c1ccc2nc(-c3ccccc3O)[nH]c2c1", "values": [
      {"measurement": "IC50", "setting": "[4]", "result": 950, "unit": "nM"},
      {"measurement": "IC50", "setting": "[5]", "result": 2010, "unit": "nM"}
    ]},
    {"smiles": "Sc1nc2c(Br)cc(Br)cc2[nH]1", "values": [
      {"measurement": "IC50", "setting": "[10]", "result": 1.5, "unit": "ng/mL"},
      {"measurement": "IC50", "setting": "[11]", "result": 6, "unit": "ng/mL"}
    ]},
    {"smiles": "Sc1nc2ccc(-n3ccnc3)cc2n1C1CCCC1", "values": [
      {"measurement": "Ki", "setting": "[12]", "result": 28, "unit": "nM"}
    ]},
    {"smiles": "CCOCN1C2=C(C(=O)Nc3ccccc3F)C(=O)CCN2c2ccc(F)cc21", "values": [
      {"measurement": "IC50", "setting": "[13]", "result": 0.1, "unit": "nM"}
    ]},
    {"smiles": "N=C(N)c1ccc(-c2ccc(O)c(-c3nc4ccc(C(=N)N)cc4[nH]3)c2)cc1", "values": [
      {"measurement": "IC50", "setting": "[14]", "result": 2.1, "unit": "nM"}
    ]},
    {"smiles": "FC(F)(F)c1nc2c(Br)c(Br)c(Br)c(Br)c2[nH]1", "values": [
      {"measurement": "Ki", "setting": "[15]", "result": 600, "unit": "nM"}
    ]}
  ]
}
